# ChEMBL document CHEMBL3044966, “Photosynthesis limitations of grapevine after treatment with the fungicide fludioxonil” (J Agric Food Chem, 2008)
# Assays:
# [1] = tested on: Vitis vinifera; experiment: Inhibition of photosynthesis in Vitis vinifera cv. Pinot noir assessed as light compensation point at 1.2 mM measured 7 days post compound application (reference value: 22.6 +/- 3.1 umol/mol); format: organism-based; details: in vivo, 168 h, 1200 µM
# [2] = tested on: Vitis vinifera; experiment: Inhibition of photosynthesis in Vitis vinifera cv. Pinot noir assessed as in vivo maximum rate of rubisco carboxylation at 6 mM measured 7 days post compound application (reference value: 42.8 +/- 3.2 umol/m2/s); format: organism-based; details: 168 h, 6000 µM
# [3] = tested on: Vitis vinifera; experiment: Inhibition of photosynthesis in Vitis vinifera cv. Pinot noir assessed as dark respiration at 1.2 mM measured 7 days post compound application (reference value: 1.6 +/- 0.0 umol/m2/s); format: organism-based; details: in vivo, 168 h, 1200 µM
# [4] = tested on: Vitis vinifera; experiment: Effect on […] CO2 level in Vitis vinifera cv. Pinot noir at 1.2 to 30 mM measured 1 day post compound application; format: ADME, organism-based; details: in vivo, 24 h, 30000 µM
# [5] = tested on: Vitis vinifera; experiment: Inhibition of photosynthesis in Vitis vinifera cv. Pinot noir assessed as ratio of apparent quantum yield of photo system 2 to apparent quantum yield yield of CO2 fixation at 1.2 mM measured 7 days post compound application (reference value: 10 +/- 1.7 no unit); format: organism-based; details: in vivo, 168 h, 1200 µM
# [6] = tested on: Vitis vinifera; experiment: Effect on stomatal conductance in Vitis vinifera cv. Pinot noir at 1.2 to 30 mM measured 7 days post compound application; format: ADME, organism-based; details: in vivo, 168 h, 30000 µM
# [7] = tested on: Vitis vinifera; experiment: Effect on total nonphotochemical quenching in Vitis vinifera cv. Pinot noir at 1.2 to 30 mM measured 7 days post compound application; format: ADME, organism-based; details: in vivo, 168 h, 30000 µM
# [8] = Inhibition of photosynthesis in Vitis vinifera cv. Pinot noir assessed as reduction in dark respiration at 1.2 mM measured 7 days post compound application; format: organism-based; details: in vivo
# [9] = tested on: Vitis vinifera; experiment: Inhibition of photosynthesis in Vitis vinifera cv. Pinot noir assessed as increase in CO2 compensation point at 30 mM measured 7 days post compound application relative to untreated control; format: organism-based; details: in vivo, 168 h, 30000 µM
# [10] = tested on: Vitis vinifera; experiment: Toxicity in Vitis vinifera cv. Pinot noir assessed as effect on gas exchanges at 1.2 to 30 mM measured 10 days post compound application; format: organism-based; details: in vivo, 240 h, 30000 µM
# [11] = tested on: Vitis vinifera; experiment: Toxicity in Vitis vinifera cv. Pinot noir assessed as effect on gas exchanges at 1.2 to 30 mM measured 14 days post compound application; format: organism-based; details: in vivo, 336 h, 30000 µM
# [12] = tested on: Vitis vinifera; experiment: Inhibition of photosynthesis in Vitis vinifera cv. Pinot noir assessed as dark respiration at 30 mM measured 7 days post compound application (reference value: 1.6 +/- 0.0 umol/m2/s); format: organism-based; details: in vivo, 168 h, 30000 µM
# [13] = tested on: Vitis vinifera; experiment: Increase in […] CO2 level in Vitis vinifera cv. Pinot noir at 6 mM measured 7 days post compound application; format: ADME, organism-based; details: in vivo, 168 h, 6000 µM
# [14] = Inhibition of photosynthesis in Vitis vinifera cv. Pinot noir assessed as reduction in net photosynthetic rate at 6 mM measured 7 days post compound application; format: organism-based; details: in vivo
# [15] = tested on: Vitis vinifera; experiment: Inhibition of photosynthesis in Vitis vinifera cv. Pinot noir assessed as reduction in net photosynthetic rate at 6 mM measured 1 day post compound application; format: organism-based; details: in vivo, 24 h, 6000 µM
# [16] = tested on: Vitis vinifera; experiment: Inhibition of photosynthesis in Vitis vinifera cv. Pinot noir assessed as PPFD-saturated net CO2 assimilation rate at 1.2 mM measured 7 days post compound application (reference value: 8.9 +/- 1.5 umol/m2/s); format: organism-based; details: in vivo, 168 h, 1200 µM
# [17] = tested on: Vitis vinifera; experiment: Inhibition of photosynthesis in Vitis vinifera cv. Pinot noir assessed as increase in ratio of apparent quantum yield of photo system 2 to apparent quantum yield yield of CO2 fixation at 1.2 to 30 mM measured 7 days post compound application; format: organism-based; parameters: scale not given: the % may be the effect or the level left; details: in vivo, 168 h, 30000 µM
# [18] = tested on: Vitis vinifera; experiment: Inhibition of photosynthesis in Vitis vinifera cv. Pinot noir assessed as light compensation point at 30 mM measured 7 days post compound application (reference value: 22.6 +/- 3.1 umol/mol); format: organism-based; details: in vivo, 168 h, 30000 µM
# [19] = tested on: Vitis vinifera; experiment: Inhibition of photosynthesis in Vitis vinifera cv. Pinot noir assessed as CO2 compensation point at 1.2 mM measured 7 days post compound application (reference value: 74.8 +/- 12.7 umol/mol); format: organism-based; details: in vivo, 168 h, 1200 µM
# [20] = Inhibition of photosynthesis in Vitis vinifera cv. Pinot noir assessed as reduction in net photosynthetic rate at 1.2 mM measured 1 day post compound application; format: organism-based; details: in vivo
# [21] = tested on: Vitis vinifera; experiment: Inhibition of photosynthesis in Vitis vinifera cv. Pinot noir assessed as CO2 compensation point at 6 mM measured 7 days post compound application (reference value: 74.8 +/- 12.7 umol/mol); format: organism-based; details: in vivo, 168 h, 6000 µM
# [22] = tested on: Vitis vinifera; experiment: Inhibition of photosynthesis in Vitis vinifera cv. Pinot noir assessed as apparent quantum yield of CO2 fixation at 6 mM measured 7 days post compound application (reference value: 0.07 +/- 0.01 no unit) umol/m2/s); format: organism-based; details: in vivo, 168 h, 6000 µM
# [23] = tested on: Vitis vinifera; experiment: Increase in […] CO2 level in Vitis vinifera cv. Pinot noir at 30 mM measured 7 days post compound application; format: ADME, organism-based; details: in vivo, 168 h, 30000 µM
# [24] = tested on: Vitis vinifera; experiment: Effect on maximum efficiency of PSII photochemistry after dark-adaptation in Vitis vinifera cv. Pinot noir at 1.2 to 30 mM measured 7 days post compound application; format: ADME, organism-based; details: in vivo, 168 h, 30000 µM
# [25] = tested on: Vitis vinifera; experiment: Inhibition of photosynthesis in Vitis vinifera cv. Pinot noir assessed as ratio of apparent quantum yield of photo system 2 to apparent quantum yield yield of CO2 fixation at 6 mM measured 7 days post compound application (reference value: 10 +/- 1.7 no unit); format: organism-based; details: in vivo, 168 h, 6000 µM
# [26] = tested on: Vitis vinifera; experiment: Increase in […] CO2 level in Vitis vinifera cv. Pinot noir at 1.2 mM measured 7 days post compound application; format: ADME, organism-based; details: in vivo, 168 h, 1200 µM
# [27] = tested on: Vitis vinifera; experiment: Inhibition of photosynthesis in Vitis vinifera cv. Pinot noir assessed as in vivo maximum rate of rubisco carboxylation at 30 mM measured 7 days post compound application (reference value: 42.8 +/- 3.2 umol/m2/s); format: organism-based; details: 168 h, 30000 µM
smiles,measurement,setting,value
N#Cc1c[nH]cc1-c1cccc2c1OC(F)(F)O2 [FLUDIOXONIL],Activity,[1],19.8 umol/mol
same,Activity,[2],44.1 micromol/m2/s
same,Activity,[3],0.8 micromol/m2/s
same,Activity,[4],Non-toxic
same,Ratio,[5],17.4
same,Activity,[6],Non-toxic
same,Activity,[7],Non-toxic
same,"inhibition at 168 h, 1200 µM",[8],30%
same,fold change (FC),[9],3.3
same,Activity,[10],Non-toxic
same,Activity,[11],Non-toxic
same,Activity,[12],1.4 micromol/m2/s
same,Activity,[13],20%
same,"inhibition at 168 h, 6000 µM",[14],65%
same,Activity,[15],Toxic
same,Activity,[16],7.7 micromol/m2/s
same,Activity,[17],50%
same,Activity,[18],37 umol/mol
same,Activity,[19],84.9 umol/mol
same,"inhibition at 24 h, 1200 µM",[20],30%
same,Activity,[21],82.2 umol/mol
same,Activity,[22],0.04
same,Activity,[23],20%
same,Activity,[24],Non-toxic
same,Ratio,[25],16.3
same,Activity,[26],13%
same,Activity,[27],46.7 micromol/m2/s
